The values below are quoted from earlier work in patent US6476071B1, “Correcting polymorphic metabolic dysfunction with (−)-hydroxycitric acid” (priority 2001, dated 2002).

The subject of one data set is rats. As to conditions: after a three hour meal.
The test system of a further data set is animals. The note with it: 70% glucose diet, as long as 80 days.

In the case of `O=C([O-])CC(O)(C(=O)[O-])C(O)C(=O)[O-].[Na+].[Na+].[Na+]` (stereo not drawn) [trisodium salt of (−)-hydroxycitric acid], the “contents of the stomach, % of control” value in the data set with rats is 223 % of control. Moreover, in the data set on rats (controls 884±145), the “contents of the stomach” value is recorded as 1973±154 dpm×10^3. Further, the “body weight after disappearance of appetite control” value in the data set with animals is “maintained a reduced weight”.
